Data: US6750268B2, “Bonding composition” (Kuraray Co., Ltd., priority 1999, dated 2004)

Experiments:
[1] = Measurement of pH of acid; type: physicochemical; settings: one part by weight of acid in 99 parts by weight of distilled water
Procedure: One part by weight of the acid to be measured is mixed with 99 parts by weight of distilled water, and the pH of the resulting mixture is measured with a pH meter (Iuchi's pH meter).

[2] = Solubility of a calcium salt of an acid in water; settings: for Calcium Salt of Acid: Solubility in water: room temperature, macroscopic check clear or cloudy
Procedure: Next, powdery calcium carbonate (0.1 mmols) is fed into the test tube, and stirred at room temperature for 10 minutes so that it is reacted with the acid. The resulting solution is macroscopically checked as to whether it is clear or cloudy. The solubility of the calcium salt in the clear solution is above 0.1 M/L, and the acid is marked “x”.
To the cloudy solution in the test tube, 9 ml of distilled water is further added, and stirred at room temperature for 30 minutes. This is again checked macroscopically. […] When it is still cloudy in this condition, the solubility of the calcium salt is below 0.01 M/L, and the acid is marked “O”. In case where the solubility of the calcium salt of the acid tested is numerically represented, test tubes having a proper capacity are prepared, and the process as above is repeated in them. Salt solutions having different concentrations are prepared, and they are macroscopically checked to quantitatively determine the solubility of the salt.

[3] = Solubility of calcium salt of acid in film-forming agent
Procedure: Next, powdery calcium carbonate (0.1 mmols) is fed into the test tube, and stirred at room temperature for 10 minutes so that it is reacted with the acid to give a calcium salt of the acid. Next, the resulting solution is dried in a drier at 60° C. for 16 hours to remove water, and the 1 ml of a film-forming agent is added to the resulting residue. This is stirred at room temperature for 30 minutes, and the resulting solution is macroscopically checked as to whether it is clear or cloudy. The solubility of the calcium salt in the clear solution is above 0.1 M/L, and the acid is marked “x”.
To the cloudy solution in the test tube, 9 ml of the film-forming agent is further added, and stirred at room temperature for 30 minutes. This is again checked macroscopically. […] When it is still cloudy in this condition, the solubility of the calcium salt is below 0.01 M/L, and the acid is marked “O”. For easily-available calcium salts of acids, such as calcium chloride. calcium nitrate and others, they are not produced in the manner as above, but commercial products are used to measure their solubility.

[4] = Miscibility of film-forming agent with physiological saline solution (uniformity of solution); type: physicochemical; settings: film-forming agent mixed with same weight of physiological saline solution 9 g/L, room temperature, shaken 20 seconds, macroscopically checked
Procedure: The film-forming agent must be soluble in water. Preferably, at least 5% by weight of the agent are soluble in water. More preferably, it is soluble in water in any ratio. In addition, the water-soluble film-forming agent must be miscible with a physiological saline solution. Whether the film-forming agent is miscible with a physiological saline solution or not can be determined from its phase diagram. […] The uniformity of the resulting solution is determined. Accordingly, the miscibility of the film-forming agent with a physiological saline solution can be determined in a simple manner.
About 1 g of the film-forming agent shown in Table 1 below was metered into a 5 ml glass bottle, and a physiological saline solution with a concentration of 9 g/L of which the weight was the same as that of the film-forming agent was put into the glass bottle, and shaken at room temperature for 20 seconds. The resulting mixture was macroscopically checked as to whether or not it could be a uniform solution.

[5] = film-forming agent 65% HEMA, 30% BMHPE, 5% Bis-GMA (Table 3)
[6] = film-forming agent 90% by weight HEMA and 10% by weight BMHPE (Table 2)

Molecule | pH of Acid [1] | Calcium Salt of Acid: Solubility in Film-forming Agent [3, 6] | Solubility (Uniformity of Reference Solutions) [4] | further results
C=C(C)C(=O)OCC(O)COCCOCC(O)COC(=O)C(=C)C (centres unmarked) [BMHPE, 1,2-bis(3-methacryloxy-2-hydroxypropoxy)ethane] | – | – | not dissolved | –
C=C(C)C(=O)OCCCCCCCCCCOP(=O)(O)O [Example 10MDP, 10-methacryloyloxydecyl phosphate] | 2.3 | ◯ | – | solubility in water of calcium salt ([2]; numerical value): 0.0003 M/L; Calcium Salt of Acid: Solubility in water [2]: ◯; Calcium Salt of Acid: Solubility in Film-forming Agent [3, 5]: ◯
C=C(C)C(=O)OCCO [HEMA, hydroxyethyl methacrylate] | – | – | dissolved | –
C=C(C)C(=O)OCCCO [HPMA, hydroxypropyl methacrylate] | – | – | not dissolved | –
C=C(C)C(=O)O [MRA, methacrylic acid, reference compound] | 2.9 | ◯ | – | –
Cc1ccc(S(=O)(=O)O)cc1 [TSA, p-toluenesulfonic acid, reference compound] | 1.4 | ◯ | – | solubility of the calcium salt of the acid in water (in words) ([2]; description, acid used in place of the polymerizable compound having an acid group): too high
O=C(O)CC(O)(CC(=O)O)C(=O)O [citric acid] | 1.6 | – | – | –
Cl [hydrochloric acid] | 0.9 | – | – | –
O=[N+]([O-])O [nitric acid] | 0.9 | – | – | –
O=C(O)C(=O)O [oxalic acid] | 1.3 | – | – | –
O=S(=O)(O)O [sulfuric acid] | 1.1 | – | – | –

Second part, led by results:

pH of Acid [1] | Calcium Salt of Acid: Solubility in Film-forming Agent [3, 6] | Solubility (Uniformity of Reference Solutions) [4] | Molecule | further results
2.2 | – | – | 8-methacryloyloxyoctyl phosphate [Example 8MOP] | –
2.2 | ◯ | – | 9-methacryloyloxynonyl phosphate [Example 9MNP] | Calcium Salt of Acid: Solubility in water [2]: ◯; Calcium Salt of Acid: Solubility in Film-forming Agent [3, 5]: ◯
2.3 | ◯ | – | 12-methacryloyloxydodecyl phosphate [Example 12MLP] | Calcium Salt of Acid: Solubility in water [2]: ◯; Calcium Salt of Acid: Solubility in Film-forming Agent [3, 5]: ◯
1.7 | ◯ | – | C=C(C)C(=O)OCCOP(=O)(O)O [Example 2MEP, 2-methacryloyloxyethyl phosphate] | Calcium Salt of Acid: Solubility in water [2]: ◯
– | – | dissolved | C=C(C)C(=O)OCC(O)CO (centres unmarked) [GLM, glycerol monomethacrylate] | –
1.6 | – | – | O=P(O)(O)O [phosphoric acid] | –
– | – | not dissolved | dimethacrylate of polyethylene glycol 200 [PE-200-OMR] | –
– | – | dissolved | monomethacrylate of polyethylene glycol 200 [PE-200-OH] | –
1.7 | – | – | phenyl-2-methacryloyloxyethyl phosphate [PMEP] | –
